# Values quoted from earlier work, collected in PMC9516332 (Frontiers in Oncology, 2022).
# Like-named read-outs stand apart in the source and are kept apart here.
# Assays:
# [1] = target: T1, panel of 255 wild-type kinases (Homo sapiens, UniProt P54760); details: kinase EPHB4, 1 µmol/L single concentration, cited from earlier work
# T1 sequence (P54760 16-987): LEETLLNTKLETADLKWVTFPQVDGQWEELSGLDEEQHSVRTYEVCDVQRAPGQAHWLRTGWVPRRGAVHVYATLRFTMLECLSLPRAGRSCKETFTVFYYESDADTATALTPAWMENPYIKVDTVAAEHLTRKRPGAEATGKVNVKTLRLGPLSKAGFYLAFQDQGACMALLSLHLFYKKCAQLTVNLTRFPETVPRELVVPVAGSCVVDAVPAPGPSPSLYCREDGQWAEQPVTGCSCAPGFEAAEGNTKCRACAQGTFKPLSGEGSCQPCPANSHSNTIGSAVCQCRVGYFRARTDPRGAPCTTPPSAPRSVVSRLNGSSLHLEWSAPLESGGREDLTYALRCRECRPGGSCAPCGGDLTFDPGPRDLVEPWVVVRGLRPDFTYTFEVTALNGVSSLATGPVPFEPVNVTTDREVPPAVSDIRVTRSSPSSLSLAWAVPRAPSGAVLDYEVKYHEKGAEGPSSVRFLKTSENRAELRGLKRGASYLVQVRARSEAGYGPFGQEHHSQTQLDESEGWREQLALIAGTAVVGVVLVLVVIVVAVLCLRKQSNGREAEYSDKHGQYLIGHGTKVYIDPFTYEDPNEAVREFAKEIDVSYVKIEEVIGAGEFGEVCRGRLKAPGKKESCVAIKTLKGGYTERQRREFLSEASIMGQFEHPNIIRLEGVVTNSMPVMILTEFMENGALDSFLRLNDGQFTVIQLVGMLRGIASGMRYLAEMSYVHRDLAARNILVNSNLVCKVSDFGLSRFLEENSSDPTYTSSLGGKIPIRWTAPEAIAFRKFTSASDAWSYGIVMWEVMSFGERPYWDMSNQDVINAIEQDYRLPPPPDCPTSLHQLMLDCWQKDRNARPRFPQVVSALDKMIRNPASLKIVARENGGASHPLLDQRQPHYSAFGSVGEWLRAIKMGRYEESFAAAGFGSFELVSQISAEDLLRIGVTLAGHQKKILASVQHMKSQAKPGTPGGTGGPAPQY
# [2] = target: panel of 255 wild-type kinases (Homo sapiens, UniProt P16591); details: kinase FER, 1 µmol/L single concentration, cited from earlier work
# [3] = target: panel of 255 wild-type kinases (Homo sapiens, UniProt Q00526); details: CDK3/CycE1 kinase assay, 1 µmol/L single concentration, cited from earlier work
# [4] = target: panel of 255 wild-type kinases (Homo sapiens, UniProt P31749); details: AKT1 kinase assay, 1 µmol/L single concentration, cited from earlier work
# [5] = target: panel of 255 wild-type kinases (Homo sapiens, UniProt P54646); details: AMPKα2/β1/γ1 kinase assay, 1 µmol/L single concentration, cited from earlier work
# [6] = target: panel of 255 wild-type kinases (Homo sapiens, UniProt P50613); details: CDK7/CycH/MAT1 kinase assay, 1 µmol/L single concentration, cited from earlier work
# [7] = target: panel of 255 wild-type kinases (Homo sapiens, UniProt P07948); details: kinase LYNa, 1 µmol/L single concentration, cited from earlier work
# [8] = target: panel of 255 wild-type kinases (Homo sapiens, UniProt P07332); details: kinase FES, 1 µmol/L single concentration, cited from earlier work
# [9] = target: panel of 255 wild-type kinases (Homo sapiens, UniProt P50750); details: CDK9/CycT1 kinase assay, 1 µmol/L single concentration, cited from earlier work
# [10] = target: T2, panel of 255 wild-type kinases (Homo sapiens, UniProt O14757); details: CHK1 kinase assay, 1 µmol/L single concentration, cited from earlier work
# T2 sequence (O14757 1-476): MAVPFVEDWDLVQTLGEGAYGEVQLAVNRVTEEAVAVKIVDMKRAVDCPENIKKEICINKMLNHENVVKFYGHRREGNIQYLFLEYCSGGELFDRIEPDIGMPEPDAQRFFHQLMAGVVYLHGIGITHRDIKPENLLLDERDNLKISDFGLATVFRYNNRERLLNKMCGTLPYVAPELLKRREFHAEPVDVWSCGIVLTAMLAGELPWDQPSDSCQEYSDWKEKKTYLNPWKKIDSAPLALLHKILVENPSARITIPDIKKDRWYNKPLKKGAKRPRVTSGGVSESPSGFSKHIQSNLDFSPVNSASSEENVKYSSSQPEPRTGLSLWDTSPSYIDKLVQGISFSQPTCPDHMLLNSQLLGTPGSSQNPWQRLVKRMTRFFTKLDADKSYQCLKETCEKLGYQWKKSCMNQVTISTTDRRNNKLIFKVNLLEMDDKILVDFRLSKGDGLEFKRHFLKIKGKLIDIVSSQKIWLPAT
# [11] = target: panel of 255 wild-type kinases (Homo sapiens, UniProt P51812); details: kinase RSK2, 1 µmol/L single concentration, cited from earlier work
# [12] = target: panel of 255 wild-type kinases (Homo sapiens, UniProt P24941); details: 1 µmol/L single concentration, cited from earlier work; for %-inhibition CDK2/CycA2: CDK2/CycA2 kinase assay; for %-inhibition CDK2/CycE1: CDK2/CycE1 kinase assay
# [13] = ref DOI: 10.1371/journal.pone.0092146
# [14] = ref DOI: 10.1158/1535-7163.MCT-18-0877
Structure (SMILES),"%-inhibition at 1 µmol/L, EPHB4 [1, 13]","%-inhibition at 1 µmol/L, FER [2, 13]","%-inhibition CDK3/CycE1 [3, 13]","%-inhibition AKT1 [4, 13]","%-inhibition AMPKα2/β1/γ1 [5, 13]","%-inhibition CDK7/CycH/MAT1 [6, 13]","%-inhibition at 1 µmol/L, LYNa [7, 13]","%-inhibition at 1 µmol/L, FES [8, 13]","%-inhibition CDK9/CycT1 [9, 13]","%-inhibition CHK1 [10, 13]","%-inhibition at 1 µmol/L, EPHB4 [1, 14]","%-inhibition CDK3/CycE1 [3, 14]","%-inhibition AMPKα2/β1/γ1 [5, 14]","%-inhibition CDK7/CycH/MAT1 [6, 14]","%-inhibition at 1 µmol/L, LYNa [7, 14]","%-inhibition at 1 µmol/L, FES [8, 14]","%-inhibition CHK1 [10, 14]","%-inhibition at 1 µmol/L, RSK2 [11, 14]","%-inhibition CDK2/CycA2 [12, 14]","%-inhibition CDK2/CycE1 [12, 14]",other results
CCCS(=O)(=O)Nc1ccc(F)c(C(=O)c2c[nH]c3ncc(-c4ccc(Cl)cc4)cc23)c1F [vemurafenib],3.73%,11%,-4.34%,-4.52%,6.49%,0.137%,73%,18%,1.33%,4%,,,,,,,,,,,"%-inhibition at 1 µmol/L, RSK2 [11, 13]: -2.31%; %-inhibition CDK2/CycA2 [12, 13]: -3%; %-inhibition CDK2/CycE1 [12, 13]: -5%"
CC(=O)Nc1cccc(-n2c(=O)n(C3CC3)c(=O)c3c(Nc4ccc(I)cc4F)n(C)c(=O)c(C)c32)c1 [trametinib],-3.38%,4.28%,0.16%,-3%,1.21%,-6%,-1.74%,-1.55%,-2.31%,-0.719%,,,,,,,,,,,"%-inhibition at 1 µmol/L, RSK2 [11, 13]: -1.76%; %-inhibition CDK2/CycA2 [12, 13]: 24%; %-inhibition CDK2/CycE1 [12, 13]: 2.59%"
CCc1cc2c(cc1N1CCC(N3CCOCC3)CC1)C(C)(C)c1[nH]c3cc(C#N)ccc3c1C2=O [alectinib],,,,,,,,,,,11%,-2.74%,6%,-12%,32%,23%,0.288%,14%,5.68%,-2.55%,"%-inhibition at 1 µmol/L, FER [2, 14]: 66%; %-inhibition AKT1 [4, 14]: 3.25%; %-inhibition CDK9/CycT1 [9, 14]: -0.0188%"
CC(C)(C)c1nc(-c2cccc(NS(=O)(=O)c3c(F)cccc3F)c2F)c(-c2ccnc(N)n2)s1 [dabrafenib],,22%,,,,,,2.29%,,,,,,,,,,,,,
CC#CC(=O)N1CCC[C@H]1c1nc(-c2ccc(C(=O)Nc3ccccn3)cc2)c2c(N)nccn12 [acalabrutinib],,,,,,,,,,,-1.45%,-6%,3.5%,5%,2%,-6.35%,-7%,0.054%,-5%,-5%,"%-inhibition at 1 µmol/L, FER [2, 14]: -2.54%; %-inhibition AKT1 [4, 14]: -6%; %-inhibition CDK9/CycT1 [9, 14]: 15%"
CO[C@@H]1[C@H](N(C)C(=O)c2ccccc2)C[C@H]2O[C@]1(C)n1c3ccccc3c3c4c(c5c6ccccc6n2c5c31)C(=O)NC4 [midostaurin],,,,,,,,,,,1.2%,11%,90%,10%,90%,90%,68%,99%,52%,22%,"%-inhibition at 1 µmol/L, FER [2, 14]: 101%; %-inhibition CDK9/CycT1 [9, 14]: 49%"
C=CC(=O)N1CCC[C@@H](n2nc(-c3ccc(Oc4ccccc4)cc3)c3c(N)ncnc32)C1 [ibrutinib],,,,,,,,,,,27%,0.486%,10%,5%,99%,0.681%,10%,7.41%,-12%,-8%,"%-inhibition AKT1 [4, 14]: -9%"
C[C@@H](Oc1cc(-c2cnn(C3CCNCC3)c2)cnc1N)c1c(Cl)ccc(F)c1Cl [crizotinib],83%,90%,-5.68%,-7%,27%,58%,42%,,5%,10%,,,,,,,,,,,"%-inhibition at 1 µmol/L, RSK2 [11, 13]: 0.217%; %-inhibition CDK2/CycA2 [12, 13]: 3%; %-inhibition CDK2/CycE1 [12, 13]: -14%"
